# Patent publication US20210046137A1, “ANTIMICROBIAL PHOTOSENSITIZER COMPOSITION AND METHOD” (ToeFX Inc., priority 2018, published 2021)
# Key:
# [1] = tested on: Trichophyton rubrum; assay: Methylene blue phototherapy of infected nail pieces, ex vivo; format: cell-based; set-up: key to Fungal growth on nail pieces after treatment: “G” indicates growth; “N” indicates no growth
# Experimental: Sterilized nail pieces were placed on fresh T.rubrum lawn to be infected for at least 10 days with dorsal side upwards. […] Control was carrier solution with no Methylene blue. […] The nails were exposed to red light (640 nm, 9 W—3 LED lights, 3 W each) for 30 min. Amount of viable fungal colonies of Trichophyton rubrum after treatment relative to control was observed using microscope and once visual continued to be monitored with the naked eye. Results are shown in Table 2, where “G” indicates growth and “N” indicates no growth. […] After 5 days mycelium growth was found for the 0.0625% and 0.03125% treatments. After 6 days of the treatment mycelium was found for the 0.125% treatments. […] Meaning that there is a need for a secondary treatment or alternative treatment in order to obtain prolonged inhibition of re-growth.
# [2] = tested on: C. albicans; conditions: low curcumin concentrations, planktonic and biofilm form; cited from earlier work
structure (smiles),measurement,setting,value
"CN(C)c1ccc2nc3ccc(=[N+](C)C)cc-3sc2c1 [MB, Methylene blue]",Fungal growth on nail pieces after treatment,"[1]; 0.03% MB in carrier, red light 640 nm 30 min, Day 3",N
same,Fungal growth on nail pieces after treatment,"[1]; 0.03% MB in carrier, red light 640 nm 30 min, Day 4",N
same,Fungal growth on nail pieces after treatment,"[1]; 0.03% MB in carrier, red light 640 nm 30 min, Day 6",G
same,Fungal growth on nail pieces after treatment,"[1]; 0.03% MB in carrier, red light 640 nm 30 min, Day 7",G
same,Fungal growth on nail pieces after treatment,"[1]; 0.03% MB in carrier, red light 640 nm 30 min, Day 8",G
same,Fungal growth on nail pieces after treatment,"[1]; 0.03% MB in carrier, red light 640 nm 30 min, Day 9",G
same,Fungal growth on nail pieces after treatment,"[1]; 0.03% MB in carrier, red light 640 nm 30 min, Day 10",G
same,Fungal growth on nail pieces after treatment,"[1]; 0.03% MB in carrier, red light 640 nm 30 min, Day 12",G
same,Fungal growth on nail pieces after treatment,"[1]; 0.03% MB in carrier, red light 640 nm 30 min, Day 13",G
same,Days after treatment at which mycelium growth was found,"[1]; 0.03125% MB, red light 640 nm 30 min",5 days
same,Fungal growth on nail pieces after treatment,"[1]; 0.0625% MB in carrier, red light 640 nm 30 min, Day 3",N
same,Fungal growth on nail pieces after treatment,"[1]; 0.0625% MB in carrier, red light 640 nm 30 min, Day 4",N
same,Fungal growth on nail pieces after treatment,"[1]; 0.0625% MB in carrier, red light 640 nm 30 min, Day 6",G
same,Fungal growth on nail pieces after treatment,"[1]; 0.0625% MB in carrier, red light 640 nm 30 min, Day 7",G
same,Fungal growth on nail pieces after treatment,"[1]; 0.0625% MB in carrier, red light 640 nm 30 min, Day 8",G
same,Fungal growth on nail pieces after treatment,"[1]; 0.0625% MB in carrier, red light 640 nm 30 min, Day 9",G
same,Fungal growth on nail pieces after treatment,"[1]; 0.0625% MB in carrier, red light 640 nm 30 min, Day 10",G
same,Fungal growth on nail pieces after treatment,"[1]; 0.0625% MB in carrier, red light 640 nm 30 min, Day 12",G
same,Fungal growth on nail pieces after treatment,"[1]; 0.0625% MB in carrier, red light 640 nm 30 min, Day 13",G
same,Days after treatment at which mycelium growth was found,"[1]; 0.0625% MB, red light 640 nm 30 min",5 days
same,Fungal growth on nail pieces after treatment,"[1]; 0.125% MB in carrier, red light 640 nm 30 min, Day 3",N
same,Fungal growth on nail pieces after treatment,"[1]; 0.125% MB in carrier, red light 640 nm 30 min, Day 4",N
same,Fungal growth on nail pieces after treatment,"[1]; 0.125% MB in carrier, red light 640 nm 30 min, Day 6",N
same,Fungal growth on nail pieces after treatment,"[1]; 0.125% MB in carrier, red light 640 nm 30 min, Day 7",G
same,Fungal growth on nail pieces after treatment,"[1]; 0.125% MB in carrier, red light 640 nm 30 min, Day 8",G
same,Fungal growth on nail pieces after treatment,"[1]; 0.125% MB in carrier, red light 640 nm 30 min, Day 9",G
same,Fungal growth on nail pieces after treatment,"[1]; 0.125% MB in carrier, red light 640 nm 30 min, Day 10",G
same,Fungal growth on nail pieces after treatment,"[1]; 0.125% MB in carrier, red light 640 nm 30 min, Day 12",G
same,Fungal growth on nail pieces after treatment,"[1]; 0.125% MB in carrier, red light 640 nm 30 min, Day 13",G
same,Days after treatment at which mycelium growth was found,"[1]; 0.125% MB, red light 640 nm 30 min",6 days
same,Fungal growth on nail pieces after treatment,"[1]; 0.25% MB in carrier, red light 640 nm 30 min, Day 3",N
same,Fungal growth on nail pieces after treatment,"[1]; 0.25% MB in carrier, red light 640 nm 30 min, Day 4",N
same,Fungal growth on nail pieces after treatment,"[1]; 0.25% MB in carrier, red light 640 nm 30 min, Day 6",N
same,Fungal growth on nail pieces after treatment,"[1]; 0.25% MB in carrier, red light 640 nm 30 min, Day 7",N
same,Fungal growth on nail pieces after treatment,"[1]; 0.25% MB in carrier, red light 640 nm 30 min, Day 8",N
same,Fungal growth on nail pieces after treatment,"[1]; 0.25% MB in carrier, red light 640 nm 30 min, Day 9",N
same,Fungal growth on nail pieces after treatment,"[1]; 0.25% MB in carrier, red light 640 nm 30 min, Day 10",N
same,Fungal growth on nail pieces after treatment,"[1]; 0.25% MB in carrier, red light 640 nm 30 min, Day 12",N
same,Fungal growth on nail pieces after treatment,"[1]; 0.25% MB in carrier, red light 640 nm 30 min, Day 13",G
same,Days after treatment at which growth was found,"[1]; 0.25% MB, red light 640 nm 30 min",12 days
same,Effect on fungus growth,"[1]; MB alone (without light), separate experiment",did not kill nor inhibit
"COc1cc(/C=C/C(=O)CC(=O)/C=C/c2ccc(O)c(OC)c2)ccc1O [curcumin, diferuloylmethane]",photoinactivating C. albicans,[2],highly effective
